Results as given in paper PMC12325182, “Discovery of novel and potent celastrol derivatives as PRDX1 inhibitors for cancer therapy through structure-based virtual screening” (Frontiers in Pharmacology, 2025).

Tests used:
Experiment in all cases: Kinase selectivity assay
Format in all cases: biochemical
[1] = target: T1, NTRK3 (Homo sapiens, UniProt Q16288)
T1 construct: assay run by ICE Biosciences (Beijing, China)
Procedure: (§1) The selectivity of CP1 for PRDX1 was evaluated through kinase selectivity assays against other PRDX family members and a panel of kinases. The experiments were conducted by ICE Biosciences (Beijing, China).

[2] = target: T2, ABL2 (Homo sapiens, UniProt P42684); details: target ABL2; read-out: CP1 IC50
T2 construct: ICE Biosciences (Beijing, China), ran the assays
Procedure: as §1

[3] = target: JAK3 (Homo sapiens, UniProt P52333); details: target JAK3; read-out: CP1 IC50
Procedure: as §1

[4] = target: ERBB2 (Homo sapiens, UniProt P04626); details: target ERBB2; read-out: CP1 IC50
Procedure: as §1

[5] = target: T3, EGFR (Homo sapiens, UniProt P00533); details: target EGFR; read-out: CP1 IC50
T3 construct: ICE Biosciences (Beijing, China), ran the assays
Procedure: as §1

[6] = target: T4, ALK (Homo sapiens, UniProt Q9UM73); details: target ALK; read-out: CP1 IC50
T4 construct: ICE Biosciences (Beijing, China), ran the assays
Procedure: as §1

[7] = target: T5, FGFR3 (Homo sapiens, UniProt P22607); details: target FGFR3; read-out: CP1 IC50
T5 construct: assay run by ICE Biosciences (Beijing, China)
Procedure: as §1

[8] = target: T6, ROS1 (Homo sapiens, UniProt P08922); details: target ROS1; read-out: CP1 IC50
T6 construct: assay run by ICE Biosciences (Beijing, China)
Procedure: as §1

[9] = target: KIT (Homo sapiens, UniProt P10721); details: target KIT; read-out: CP1 IC50
Procedure: as §1

[10] = target: T7, FRK (Homo sapiens, UniProt P42685); details: target FRK; read-out: CP1 IC50
T7 construct: assay run by ICE Biosciences (Beijing, China)
Procedure: as §1

[11] = target: INSR (Homo sapiens, UniProt P06213); details: target INSR; read-out: CP1 IC50
Procedure: as §1

[12] = target: LTK (Homo sapiens, UniProt P29376); details: target LTK; read-out: CP1 IC50
Chain of LTK (P29376 17-864): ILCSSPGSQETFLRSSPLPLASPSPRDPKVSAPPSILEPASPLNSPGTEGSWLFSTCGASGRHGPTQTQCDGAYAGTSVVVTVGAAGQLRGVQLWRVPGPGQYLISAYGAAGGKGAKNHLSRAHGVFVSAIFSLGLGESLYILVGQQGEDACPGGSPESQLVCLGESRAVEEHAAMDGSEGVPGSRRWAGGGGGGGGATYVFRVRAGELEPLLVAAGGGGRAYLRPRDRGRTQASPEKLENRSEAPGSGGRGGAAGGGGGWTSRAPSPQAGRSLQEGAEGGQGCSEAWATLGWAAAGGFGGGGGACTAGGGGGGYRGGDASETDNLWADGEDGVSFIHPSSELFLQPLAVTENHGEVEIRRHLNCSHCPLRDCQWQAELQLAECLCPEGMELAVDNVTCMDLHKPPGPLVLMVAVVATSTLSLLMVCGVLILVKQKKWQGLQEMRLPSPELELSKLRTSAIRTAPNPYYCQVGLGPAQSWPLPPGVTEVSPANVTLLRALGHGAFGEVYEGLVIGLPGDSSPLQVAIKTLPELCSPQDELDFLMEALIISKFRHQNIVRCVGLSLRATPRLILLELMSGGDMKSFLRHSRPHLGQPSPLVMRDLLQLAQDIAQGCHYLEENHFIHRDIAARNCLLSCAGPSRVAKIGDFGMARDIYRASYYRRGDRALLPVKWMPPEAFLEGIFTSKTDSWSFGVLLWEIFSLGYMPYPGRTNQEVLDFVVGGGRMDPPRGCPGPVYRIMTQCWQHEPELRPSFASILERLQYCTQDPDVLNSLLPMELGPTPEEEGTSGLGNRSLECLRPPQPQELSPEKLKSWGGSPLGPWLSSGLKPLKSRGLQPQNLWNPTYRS
Procedure: as §1

[13] = target: T8, FGFR2 (Homo sapiens, UniProt P21802); details: target FGFR2; read-out: CP1 IC50
T8 construct: assay run by ICE Biosciences (Beijing, China)
Procedure: as §1

[14] = target: T9, PTK2B (Homo sapiens, UniProt Q14289); details: target PTK2B; read-out: CP1 IC50
T9 construct: assay run by ICE Biosciences (Beijing, China)
Procedure: as §1

[15] = target: T10, IGF1R (Homo sapiens, UniProt P08069); details: target IGF1R; read-out: CP1 IC50
T10 construct: ICE Biosciences (Beijing, China), ran the assays
T10 sequence (P08069 31-1367): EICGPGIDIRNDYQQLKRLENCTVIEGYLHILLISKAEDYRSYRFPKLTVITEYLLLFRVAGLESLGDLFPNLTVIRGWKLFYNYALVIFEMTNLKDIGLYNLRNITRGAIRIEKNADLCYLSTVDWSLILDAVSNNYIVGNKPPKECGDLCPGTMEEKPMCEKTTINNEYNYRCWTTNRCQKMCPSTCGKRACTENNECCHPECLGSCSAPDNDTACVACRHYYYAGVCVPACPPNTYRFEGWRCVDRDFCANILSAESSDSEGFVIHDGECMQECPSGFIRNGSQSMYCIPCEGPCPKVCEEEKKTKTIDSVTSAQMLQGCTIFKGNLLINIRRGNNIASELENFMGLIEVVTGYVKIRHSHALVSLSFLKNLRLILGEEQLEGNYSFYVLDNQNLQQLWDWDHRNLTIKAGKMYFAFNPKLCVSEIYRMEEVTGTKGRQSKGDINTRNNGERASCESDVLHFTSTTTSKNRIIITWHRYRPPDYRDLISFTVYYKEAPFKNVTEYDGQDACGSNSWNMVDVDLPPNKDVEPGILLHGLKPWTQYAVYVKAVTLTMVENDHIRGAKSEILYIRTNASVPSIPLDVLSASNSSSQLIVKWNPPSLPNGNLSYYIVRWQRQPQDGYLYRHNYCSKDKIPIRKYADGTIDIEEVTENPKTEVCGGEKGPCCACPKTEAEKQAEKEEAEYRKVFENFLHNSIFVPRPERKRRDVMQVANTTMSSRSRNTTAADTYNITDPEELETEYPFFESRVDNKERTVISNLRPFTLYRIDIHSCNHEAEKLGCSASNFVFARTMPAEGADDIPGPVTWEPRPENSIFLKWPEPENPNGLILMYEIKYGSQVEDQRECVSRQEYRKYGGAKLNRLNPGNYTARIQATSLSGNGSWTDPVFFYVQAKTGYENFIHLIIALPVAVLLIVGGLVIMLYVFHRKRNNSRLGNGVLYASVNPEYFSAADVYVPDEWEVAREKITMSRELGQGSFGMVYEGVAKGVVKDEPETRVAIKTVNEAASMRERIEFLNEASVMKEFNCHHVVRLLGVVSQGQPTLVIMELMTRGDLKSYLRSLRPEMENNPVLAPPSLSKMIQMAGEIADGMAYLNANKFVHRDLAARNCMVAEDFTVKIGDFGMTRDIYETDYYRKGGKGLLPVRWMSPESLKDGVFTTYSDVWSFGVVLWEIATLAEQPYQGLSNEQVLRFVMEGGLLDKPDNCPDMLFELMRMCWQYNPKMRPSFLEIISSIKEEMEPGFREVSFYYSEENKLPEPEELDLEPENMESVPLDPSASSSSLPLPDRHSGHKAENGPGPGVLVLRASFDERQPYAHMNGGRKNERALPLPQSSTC
Procedure: as §1

[16] = target: NTRK2 (Homo sapiens, UniProt Q16620)
Procedure: as §1

[17] = target: T11, TNK2 (Homo sapiens, UniProt Q07912); details: target TNK2; read-out: CP1 IC50
T11 construct: assay run by ICE Biosciences (Beijing, China)
Procedure: as §1

[18] = target: T12, FYN (Homo sapiens, UniProt P06241); details: target FYN; read-out: CP1 IC50
T12 construct: assay run by ICE Biosciences (Beijing, China)
Procedure: as §1

[19] = target: FER (Homo sapiens, UniProt P16591); details: target FER; read-out: CP1 IC50
Chain of FER (P16591 whole entry): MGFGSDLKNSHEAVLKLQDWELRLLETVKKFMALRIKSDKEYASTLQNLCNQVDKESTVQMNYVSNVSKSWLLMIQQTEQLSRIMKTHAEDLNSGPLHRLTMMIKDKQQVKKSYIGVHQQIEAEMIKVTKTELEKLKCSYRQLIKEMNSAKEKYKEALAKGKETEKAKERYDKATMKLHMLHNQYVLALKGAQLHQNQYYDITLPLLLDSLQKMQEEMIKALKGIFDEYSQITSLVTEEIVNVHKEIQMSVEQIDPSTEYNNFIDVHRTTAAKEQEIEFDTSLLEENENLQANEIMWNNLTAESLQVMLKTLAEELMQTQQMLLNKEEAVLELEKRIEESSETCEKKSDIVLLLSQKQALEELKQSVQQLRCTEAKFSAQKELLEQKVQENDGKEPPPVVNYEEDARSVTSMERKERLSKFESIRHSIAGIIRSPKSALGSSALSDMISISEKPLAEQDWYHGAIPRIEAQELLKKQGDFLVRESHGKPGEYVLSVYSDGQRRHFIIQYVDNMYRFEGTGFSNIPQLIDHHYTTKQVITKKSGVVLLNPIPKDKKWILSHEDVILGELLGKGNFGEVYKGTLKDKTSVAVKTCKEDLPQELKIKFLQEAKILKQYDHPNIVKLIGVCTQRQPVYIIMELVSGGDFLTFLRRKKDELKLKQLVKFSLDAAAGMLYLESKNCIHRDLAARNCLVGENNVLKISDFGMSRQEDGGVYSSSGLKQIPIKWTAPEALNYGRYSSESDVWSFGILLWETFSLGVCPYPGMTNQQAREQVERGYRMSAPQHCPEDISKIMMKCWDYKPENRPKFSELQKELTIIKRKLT
Procedure: as §1

[20] = target: T13, FGFR4 (Homo sapiens, UniProt P22455); details: target FGFR4; read-out: CP1 IC50
T13 construct: assay run by ICE Biosciences (Beijing, China)
Procedure: as §1

[21] = target: T14, BTK (Homo sapiens, UniProt Q06187); details: target BTK; read-out: CP1 IC50
T14 construct: ICE Biosciences (Beijing, China), ran the assays
Procedure: as §1

[22] = target: T15, BLK (Homo sapiens, UniProt P51451); details: target BLK; read-out: CP1 IC50
T15 construct: ICE Biosciences (Beijing, China), ran the assays
T15 sequence (P51451 whole entry): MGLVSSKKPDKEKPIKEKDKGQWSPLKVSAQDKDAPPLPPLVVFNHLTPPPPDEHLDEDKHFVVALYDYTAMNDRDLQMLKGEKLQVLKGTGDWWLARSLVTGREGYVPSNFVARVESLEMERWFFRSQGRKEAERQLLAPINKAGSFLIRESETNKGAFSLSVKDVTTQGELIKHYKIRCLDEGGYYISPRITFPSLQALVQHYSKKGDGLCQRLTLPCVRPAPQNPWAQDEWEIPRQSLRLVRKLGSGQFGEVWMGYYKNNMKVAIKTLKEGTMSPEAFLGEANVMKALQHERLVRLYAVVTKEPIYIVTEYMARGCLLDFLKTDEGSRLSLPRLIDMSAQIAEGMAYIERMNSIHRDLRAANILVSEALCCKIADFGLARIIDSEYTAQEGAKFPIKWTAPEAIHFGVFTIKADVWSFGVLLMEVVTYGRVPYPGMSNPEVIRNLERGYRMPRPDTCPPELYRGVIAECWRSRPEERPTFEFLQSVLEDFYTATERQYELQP
Procedure: as §1

[23] = target: T16, TYK2 (Homo sapiens, UniProt P29597); details: target TYK2; read-out: CP1 IC50
T16 construct: ICE Biosciences (Beijing, China), a contract laboratory that ran the assay
Procedure: as §1

[24] = target: T17, SRMS (Homo sapiens, UniProt Q9H3Y6); details: target SRMS; read-out: CP1 IC50
T17 construct: assay run by ICE Biosciences (Beijing, China)
Procedure: as §1

[25] = target: T18, RET (Homo sapiens, UniProt P07949); details: target RET; read-out: CP1 IC50
T18 construct: assay run by ICE Biosciences (Beijing, China)
T18 sequence (P07949 29-1114): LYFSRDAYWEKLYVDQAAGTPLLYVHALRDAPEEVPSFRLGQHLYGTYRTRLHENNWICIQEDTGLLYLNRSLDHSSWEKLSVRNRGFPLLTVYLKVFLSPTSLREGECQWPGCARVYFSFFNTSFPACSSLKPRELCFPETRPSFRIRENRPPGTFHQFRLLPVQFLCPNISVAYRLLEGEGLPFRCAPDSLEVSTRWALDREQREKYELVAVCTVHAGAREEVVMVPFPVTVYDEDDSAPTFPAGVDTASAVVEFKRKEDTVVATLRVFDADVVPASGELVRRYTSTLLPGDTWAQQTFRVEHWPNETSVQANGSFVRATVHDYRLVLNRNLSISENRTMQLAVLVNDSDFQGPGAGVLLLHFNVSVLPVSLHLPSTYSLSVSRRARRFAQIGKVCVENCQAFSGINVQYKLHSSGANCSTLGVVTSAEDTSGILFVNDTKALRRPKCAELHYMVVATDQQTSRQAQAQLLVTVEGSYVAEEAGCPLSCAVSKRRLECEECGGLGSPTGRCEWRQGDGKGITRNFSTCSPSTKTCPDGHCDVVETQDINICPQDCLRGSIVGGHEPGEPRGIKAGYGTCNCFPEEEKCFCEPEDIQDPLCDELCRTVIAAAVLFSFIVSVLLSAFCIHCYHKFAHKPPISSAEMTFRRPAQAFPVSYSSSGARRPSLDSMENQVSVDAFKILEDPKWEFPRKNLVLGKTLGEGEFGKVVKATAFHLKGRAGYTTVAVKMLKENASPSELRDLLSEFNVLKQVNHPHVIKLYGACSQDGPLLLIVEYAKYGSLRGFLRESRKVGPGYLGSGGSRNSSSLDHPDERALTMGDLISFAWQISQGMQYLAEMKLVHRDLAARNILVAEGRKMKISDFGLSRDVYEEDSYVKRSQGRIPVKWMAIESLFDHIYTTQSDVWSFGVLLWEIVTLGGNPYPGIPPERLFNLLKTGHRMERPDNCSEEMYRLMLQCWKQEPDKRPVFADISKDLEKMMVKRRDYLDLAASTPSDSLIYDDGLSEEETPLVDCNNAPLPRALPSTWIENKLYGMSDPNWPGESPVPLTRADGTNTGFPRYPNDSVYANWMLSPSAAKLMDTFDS
Procedure: as §1

[26] = target: T19, PDGFRA (Homo sapiens, UniProt P16234); details: target PDGFRA; read-out: CP1 IC50
T19 construct: assay run by ICE Biosciences (Beijing, China)
Procedure: as §1

[27] = target: T20, SYK (Homo sapiens, UniProt P43405); details: target SYK; read-out: CP1 IC50
T20 construct: assay run by ICE Biosciences (Beijing, China)
Procedure: as §1

[28] = target: T21, TEK (Homo sapiens, UniProt Q02763); details: target TEK; read-out: CP1 IC50
T21 construct: assay run by ICE Biosciences (Beijing, China)
Procedure: as §1

[29] = target: T22, ABL1 (Homo sapiens, UniProt P00519); details: target ABL1; read-out: CP1 IC50
T22 construct: ICE Biosciences (Beijing, China), ran the assays
Procedure: as §1

[30] = target: T23, AXL (Homo sapiens, UniProt P30530); details: target AXL; read-out: CP1 IC50
T23 construct: ICE Biosciences (Beijing, China), ran the assays
Procedure: as §1

[31] = target: JAK1 (Homo sapiens, UniProt P23458); details: target JAK1; read-out: CP1 IC50
Procedure: as §1

[32] = target: T24, PRDX3 (Homo sapiens, UniProt P30048); details: target PRDX3; read-out: CP1 IC50
T24 construct: ICE Biosciences (Beijing, China), ran the assays
T24 sequence (P30048 62-256): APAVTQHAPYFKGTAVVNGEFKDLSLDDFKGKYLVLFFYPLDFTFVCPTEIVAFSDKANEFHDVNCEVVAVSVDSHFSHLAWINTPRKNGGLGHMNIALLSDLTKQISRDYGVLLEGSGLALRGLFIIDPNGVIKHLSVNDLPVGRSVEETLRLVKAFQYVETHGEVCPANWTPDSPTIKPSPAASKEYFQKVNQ
Procedure: as §1

[33] = target: T25, PRDX2 (Homo sapiens, UniProt P32119); details: target PRDX2; read-out: CP1 IC50
T25 construct: ICE Biosciences (Beijing, China), ran the assays
T25 sequence (P32119 whole entry): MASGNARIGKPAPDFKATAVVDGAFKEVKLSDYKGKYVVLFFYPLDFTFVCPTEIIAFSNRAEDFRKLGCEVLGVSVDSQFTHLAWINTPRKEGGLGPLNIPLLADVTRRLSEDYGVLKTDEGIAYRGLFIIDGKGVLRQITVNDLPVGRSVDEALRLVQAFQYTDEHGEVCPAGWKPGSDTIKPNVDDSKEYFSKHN
Procedure: as §1

[34] = target: MST1R (Homo sapiens, UniProt Q04912); details: target MST1R; read-out: CP1 IC50
Procedure: as §1

Measured: IC50

CC1=C(CC(=O)/C=C/c2cccc(CO)c2)C(=O)C=C2C1=CC=C1[C@@]2(C)CC[C@@]2(C)C3C[C@](C)(C(=O)CCc4nc(C(O)C(O)O)c(C)nc4C)CC[C@]3(C)CC[C@]12C (stereo partly shown) [CP1]
> 30 µM: [1] | [2] | [3] | [4] | [5] | [6] | [7] | [8] | [9] | [10] | [11] | [12] | [13] | [14] | [15] | [16] | [17] | [18] | [19] | [20] | [21] | [22] | [23] | [24] | [25] | [26] | [27] | [28] | [29] | [30] | [31] | [32] | [33] | [34]
